Key:
Assay in all cases: Seedling stage sealing experiment for water-seeding
Type in all cases: in vivo
[1] = tested on: Leptochloa chinensis; settings: 120 g a.i./ha, 15 days, fresh weight control rate
Method in brief: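 Seeds sown in soil-filled bowls kept moist in water-filled boxes; compound in acetone diluted with water and spray-applied at 120, 60, 30 and 15 g a.i./ha, triplicate. After 15 days in greenhouse, fresh-weight growth control scored on a 0–9 scale (9 = dead, 0 = no effect), averaged.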

[2] = tested on: Echinochloa phyllopogon; settings: 120 g a.i./ha, seedling stage sealing, 15 days, fresh weight control rate
Method in brief: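 Water-seeding seedling stage test: broadcast seeds, cover with soil, keep bowls moist in a water box; spray compound (acetone, diluted in water) at 120, 60, 30, 15 g a.i./ha; culture 15 d in greenhouse; grade 0–9 by fresh-weight growth control; mean of 3.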

[3] = tested on: Echinochloa crusgalli; settings: 120 g a.i./ha, seedling stage sealing, 15 days, fresh weight control rate

COc1cc(C)cc([C@H]2CN(C)C(=O)[C@@H]2C(=O)Nc2cnn(C)c2Cl)c1 [300′]
Leptochloa chinensis activity level (growth control rate) [1]: 9
Echinochloa phyllopogon activity level (growth control rate) [2]: 7 (Level 7: growth control rate greater than or equal to 80% and less than 90%)
Echinochloa crusgalli activity level (growth control rate) [3]: 9

CN1C[C@H](c2ccc(F)c(Cl)c2)[C@@H](C(=O)Nc2cnn(C)c2C2CC2)C1=O [308′]
Leptochloa chinensis activity level (growth control rate) [1]: 9
Echinochloa phyllopogon activity level (growth control rate) [2]: 9
Echinochloa crusgalli activity level (growth control rate) [3]: 9

CN1C[C@H](c2ccc(F)c(Cl)c2)[C@@H](C(=O)Nc2c(O)nn(C)c2F)C1=O [311′]
Leptochloa chinensis activity level (growth control rate) [1]: 9
Echinochloa phyllopogon activity level (growth control rate) [2]: 8 (Level 8: growth control rate greater than or equal to 90% and less than 100%)
Echinochloa crusgalli activity level (growth control rate) [3]: 9

CN1C[C@H](c2ccc(C(F)(F)F)c(F)c2)[C@@H](C(=O)Nc2cnn(C)c2Cl)C1=O [315′]
Leptochloa chinensis activity level (growth control rate) [1]: 9
Echinochloa phyllopogon activity level (growth control rate) [2]: 8 (Level 8: growth control rate greater than or equal to 90% and less than 100%)
Echinochloa crusgalli activity level (growth control rate) [3]: 9

CC(C)Oc1cc([C@H]2CN(C)C(=O)[C@@H]2C(=O)Nc2cnn(C)c2Cl)ccc1F [318′]
Leptochloa chinensis activity level (growth control rate) [1]: 8 (Level 8: growth control rate greater than or equal to 90% and less than 100%)
Echinochloa phyllopogon activity level (growth control rate) [2]: 8 (Level 8: growth control rate greater than or equal to 90% and less than 100%)
Echinochloa crusgalli activity level (growth control rate) [3]: 9

COc1cc([C@H]2CN(C)C(=O)[C@@H]2C(=O)Nc2cnn(C)c2Cl)ccc1Cl [319′]
Leptochloa chinensis activity level (growth control rate) [1]: 6 (Level 6: growth control rate greater than or equal to 70% and less than 80%)
Echinochloa phyllopogon activity level (growth control rate) [2]: 5 (Level 5: growth control rate greater than or equal to 50% and less than 70%)
Echinochloa crusgalli activity level (growth control rate) [3]: 5 (Level 5: growth control rate greater than or equal to 50% and less than 70%)

COc1cc([C@H]2CN(C)C(=O)[C@@H]2C(=O)Nc2cnn(C)c2Cl)ccc1C [321′]
Leptochloa chinensis activity level (growth control rate) [1]: 7 (Level 7: growth control rate greater than or equal to 80% and less than 90%)
Echinochloa phyllopogon activity level (growth control rate) [2]: 6 (Level 6: growth control rate greater than or equal to 70% and less than 80%)
Echinochloa crusgalli activity level (growth control rate) [3]: 9

CN1C[C@H](c2ccc3ccccc3c2)[C@@H](C(=O)Nc2cnn(C)c2Cl)C1=O [353′]
Leptochloa chinensis activity level (growth control rate) [1]: 9
Echinochloa phyllopogon activity level (growth control rate) [2]: 7 (Level 7: growth control rate greater than or equal to 80% and less than 90%)
Echinochloa crusgalli activity level (growth control rate) [3]: 9

CN1CC(c2cccc(Cl)c2)C(C(=O)Nc2cnn(C)c2Cl)C1=O (stereo not drawn) [Compound 16]
Leptochloa chinensis activity level (growth control rate) [1]: 9
Echinochloa phyllopogon activity level (growth control rate) [2]: 5 (Level 5: growth control rate greater than or equal to 50% and less than 70%)
Echinochloa crusgalli activity level (growth control rate) [3]: 6 (Level 6: growth control rate greater than or equal to 70% and less than 80%)

C=CCc1cccc(C2CN(C)C(=O)C2C(=O)Nc2cnn(C)c2Cl)c1 (stereo not drawn) [Compound 24]
Leptochloa chinensis activity level (growth control rate) [1]: 9
Echinochloa phyllopogon activity level (growth control rate) [2]: 8 (Level 8: growth control rate greater than or equal to 90% and less than 100%)
Echinochloa crusgalli activity level (growth control rate) [3]: 9

CN1CC(c2cccc(OC(F)(F)F)c2)C(C(=O)Nc2cnn(C)c2Cl)C1=O (stereo not drawn) [Compound 33]
Leptochloa chinensis activity level (growth control rate) [1]: 9
Echinochloa phyllopogon activity level (growth control rate) [2]: 5 (Level 5: growth control rate greater than or equal to 50% and less than 70%)
Echinochloa crusgalli activity level (growth control rate) [3]: 9

CN1CC(c2cc(F)cc(C(F)(F)F)c2)C(C(=O)Nc2cnn(C)c2Cl)C1=O (stereo not drawn) [Compound 67]
Leptochloa chinensis activity level (growth control rate) [1]: 9
Echinochloa phyllopogon activity level (growth control rate) [2]: 6 (Level 6: growth control rate greater than or equal to 70% and less than 80%)
Echinochloa crusgalli activity level (growth control rate) [3]: 9

CN1CC(c2cc(C(F)(F)F)ccc2F)C(C(=O)Nc2cnn(C)c2Cl)C1=O (stereo not drawn) [Compound 80]
Leptochloa chinensis activity level (growth control rate) [1]: 6 (Level 6: growth control rate greater than or equal to 70% and less than 80%)
Echinochloa phyllopogon activity level (growth control rate) [2]: 6 (Level 6: growth control rate greater than or equal to 70% and less than 80%)
Echinochloa crusgalli activity level (growth control rate) [3]: 6 (Level 6: growth control rate greater than or equal to 70% and less than 80%)

CCn1ncc(NC(=O)C2C(=O)N(C)CC2c2cccc(C(F)(F)F)c2)c1Cl (stereo not drawn) [Compound 95]
Leptochloa chinensis activity level (growth control rate) [1]: 9
Echinochloa phyllopogon activity level (growth control rate) [2]: 6 (Level 6: growth control rate greater than or equal to 70% and less than 80%)
Echinochloa crusgalli activity level (growth control rate) [3]: 6 (Level 6: growth control rate greater than or equal to 70% and less than 80%)

CC(C)n1ncc(NC(=O)C2C(=O)N(C)CC2c2cccc(C(F)(F)F)c2)c1Cl (stereo not drawn) [Compound 97]
Leptochloa chinensis activity level (growth control rate) [1]: 9
Echinochloa phyllopogon activity level (growth control rate) [2]: 7 (Level 7: growth control rate greater than or equal to 80% and less than 90%)
Echinochloa crusgalli activity level (growth control rate) [3]: 9

CN1CC(c2cc(F)cc(F)c2)C(C(=O)Nc2cnn(C)c2Cl)C1=O (stereo not drawn) [Compound 115]
Leptochloa chinensis activity level (growth control rate) [1]: 6 (Level 6: growth control rate greater than or equal to 70% and less than 80%)
Echinochloa phyllopogon activity level (growth control rate) [2]: 6 (Level 6: growth control rate greater than or equal to 70% and less than 80%)
Echinochloa crusgalli activity level (growth control rate) [3]: 9

CN1CC(c2cccc(Br)c2)C(C(=O)Nc2cnn(C)c2Cl)C1=O (stereo not drawn) [Compound 126]
Leptochloa chinensis activity level (growth control rate) [1]: 9
Echinochloa phyllopogon activity level (growth control rate) [2]: 7 (Level 7: growth control rate greater than or equal to 80% and less than 90%)
Echinochloa crusgalli activity level (growth control rate) [3]: 7 (Level 7: growth control rate greater than or equal to 80% and less than 90%)

CN1CC(c2cccc(C(F)(F)F)c2)C(C(=O)Nc2cnn(C3CC3)c2Cl)C1=O (stereo not drawn) [Compound 164]
Leptochloa chinensis activity level (growth control rate) [1]: 9
Echinochloa phyllopogon activity level (growth control rate) [2]: 6 (Level 6: growth control rate greater than or equal to 70% and less than 80%)
Echinochloa crusgalli activity level (growth control rate) [3]: 7 (Level 7: growth control rate greater than or equal to 80% and less than 90%)

Cc1cc(C)cc(C2CN(C)C(=O)C2C(=O)Nc2c(O)nn(C)c2F)c1 (stereo not drawn) [Compound 286]
Leptochloa chinensis activity level (growth control rate) [1]: 9
Echinochloa phyllopogon activity level (growth control rate) [2]: 7 (Level 7: growth control rate greater than or equal to 80% and less than 90%)
Echinochloa crusgalli activity level (growth control rate) [3]: 9

CN1CC(c2ccc(F)cc2F)C(C(=O)Nc2cnn(C)c2Cl)C1=O (stereo not drawn) [Compound 304]
Leptochloa chinensis activity level (growth control rate) [1]: 5 (Level 5: growth control rate greater than or equal to 50% and less than 70%)
Echinochloa phyllopogon activity level (growth control rate) [2]: 6 (Level 6: growth control rate greater than or equal to 70% and less than 80%)
Echinochloa crusgalli activity level (growth control rate) [3]: 7 (Level 7: growth control rate greater than or equal to 80% and less than 90%)

COc1cccc(C2CN(C)C(=O)C2C(=O)Nc2cnn(C)c2Cl)c1F (stereo not drawn) [Compound 307]
Leptochloa chinensis activity level (growth control rate) [1]: 5 (Level 5: growth control rate greater than or equal to 50% and less than 70%)
Echinochloa phyllopogon activity level (growth control rate) [2]: 6 (Level 6: growth control rate greater than or equal to 70% and less than 80%)
Echinochloa crusgalli activity level (growth control rate) [3]: 6 (Level 6: growth control rate greater than or equal to 70% and less than 80%)

CN1CC(c2ccc(Cl)c(Cl)c2)C(C(=O)Nc2cnn(C)c2Cl)C1=O (stereo not drawn) [Compound 309]
Leptochloa chinensis activity level (growth control rate) [1]: 9
Echinochloa phyllopogon activity level (growth control rate) [2]: 5 (Level 5: growth control rate greater than or equal to 50% and less than 70%)
Echinochloa crusgalli activity level (growth control rate) [3]: 6 (Level 6: growth control rate greater than or equal to 70% and less than 80%)

CN1CC(c2ccc(F)c(Cl)c2)C(C(=O)Nc2cnn(C)c2Cl)C1=O (stereo not drawn) [Compound 310]
Leptochloa chinensis activity level (growth control rate) [1]: 9
Echinochloa phyllopogon activity level (growth control rate) [2]: 8 (Level 8: growth control rate greater than or equal to 90% and less than 100%)
Echinochloa crusgalli activity level (growth control rate) [3]: 9

Cc1ccc(C2CN(C)C(=O)C2C(=O)Nc2cnn(C)c2Cl)cc1C (stereo not drawn) [Compound 314]
Leptochloa chinensis activity level (growth control rate) [1]: 9
Echinochloa phyllopogon activity level (growth control rate) [2]: 6 (Level 6: growth control rate greater than or equal to 70% and less than 80%)
Echinochloa crusgalli activity level (growth control rate) [3]: 7 (Level 7: growth control rate greater than or equal to 80% and less than 90%)

COc1cc(C2CN(C)C(=O)C2C(=O)Nc2cnn(C)c2Cl)ccc1F (stereo not drawn) [Compound 320]
Leptochloa chinensis activity level (growth control rate) [1]: 5 (Level 5: growth control rate greater than or equal to 50% and less than 70%)
Echinochloa phyllopogon activity level (growth control rate) [2]: 6 (Level 6: growth control rate greater than or equal to 70% and less than 80%)
Echinochloa crusgalli activity level (growth control rate) [3]: 6 (Level 6: growth control rate greater than or equal to 70% and less than 80%)

— patent US20260223850A1, “SUBSTITUTED PYRROLIDONE COMPOUND, PREPARATION METHOD THEREFOR, COMPOSITION AND APPLICATION THEREOF” (QINGDAO KINGAGROOT CHEMICAL COMPOUND CO., LTD., priority 2023, published 2026)
